Converted amounts (≈) assume the structure as drawn.
Columns and labels:
[1] = test system: Plasmodium yoelii; assay: Antiplasmodial activity against blood stage schizont Plasmodium yoelii; type: functional, organism-based
[2] = test system: Plasmodium falciparum; assay: Antiplasmodial activity against schizont blood stage Plasmodium falciparum; type: functional, organism-based
[3] = Hepatic extraction ratio in mouse liver microsomes by LC/MS analysis; type: ADME; conditions: read-out: ERH
[4] = test system: Plasmodium cynomolgi; assay: Antiplasmodial activity against schizont liver stage Plasmodium cynomolgi; type: functional, organism-based
[5] = test system: Plasmodium cynomolgi; assay: Antiplasmodial activity against hypnozoite liver stage Plasmodium cynomolgi; type: functional, organism-based
[6] = Half life in mouse liver microsomes by LC/MS analysis; type: ADME
[7] = Solubility of the compound at pH 6.8 by HT-equilibrium solubility assay; type: physicochemical; conditions: buffer
[8] = Half life in mouse at 20 mg/kg, po; type: ADME, organism-based; set-up: dose 20 mg/kg, route oral; conditions: in vivo
[9] = Volume of distribution at steady state in mouse at 5 mg/kg, iv; type: ADME, organism-based; set-up: dose 5 mg/kg, route intravenous; conditions: in vivo, read-out: Vdss
[10] = AUC in mouse at 20 mg/kg, po; type: ADME, organism-based; set-up: dose 20 mg/kg, route oral; conditions: plasma
[11] = Cmax in mouse at 20 mg/kg, po; type: ADME, organism-based; set-up: dose 20 mg/kg, route oral; conditions: in vivo
[12] = Oral bioavailability in mouse at 20 mg/kg; type: ADME, organism-based; conditions: in vivo
[13] = Tmax in mouse at 20 mg/kg, po; type: ADME, organism-based; set-up: dose 20 mg/kg, route oral; conditions: in vivo
[14] = Clearance in mouse at 5 mg/kg, iv; type: ADME, organism-based; set-up: dose 5 mg/kg, route intravenous; conditions: in vivo
[15] = Half life in mouse at 5 mg/kg, iv; type: ADME, organism-based; set-up: dose 5 mg/kg, route intravenous; conditions: in vivo
[16] = test system: Plasmodium berghei; assay: Antimalarial activity against Plasmodium berghei infected in mouse assessed as animal protection at 30 mg/kg, po by causal prophylactic activity assay relative to untreated control; type: functional

Row | IC50 [1] [nM] | IC50 [2] [nM] | hepatic extraction ratio [3] | IC50 [4] [nM] | IC50 [5] [nM] | half-life [6] [h] | solubility thermodynamic [7] [µM] | half-life [8] [h] | Vd [9] [L/kg] | AUC [10] [µM·h] | Cmax [11] [µM] | bioavailability [12] [%] | Tmax [13] [h] | clearance [14] [mL/min/kg] | half-life [15] [h] | SMILES | Activity [16] [%]
1 | 200 | 275 | – | – | – | – | – | – | – | – | – | – | – | – | – | CN(C(=O)c1cn2c(-c3ccc(C(F)(F)F)cc3)cnc2cn1)c1ccc(Cl)nc1 | –
2 | 160 | 63 | 0.4 | 120 | 810 | 1.37 | 9 (≈ 3.79 µg/mL) | – | – | – | – | – | – | – | – | CN(C(=O)c1cn2c(-c3ccc(C(F)(F)F)cc3)cnc2cn1)c1ccc(C#N)cc1 | –
3 | > 10000 | > 10000 | – | – | – | – | – | – | – | – | – | – | – | – | – | Cc1ccc(N(C)C(=O)c2cn3c(-c4ccc(C(F)(F)F)cc4)cnc3cn2)nn1 | –
4 | 36 | 58 | 0.49 | 105 | 196 | 1.05 | 820 (≈ 344 µg/mL) | 3.63 | 0.96 | 31.2 | 20.5 | 60 | 0.5 | 19.3 | 0.83 | CNC(=O)c1ccc(-c2cnc3cnc(C(=O)N(C)c4ccc(Cl)cc4)cn23)cc1 | –
5 | 290 | 131 | 0.33 | 81 | 94 | 2.08 | 430 (≈ 176 µg/mL) | 1.63 | 1.02 | 12.4 | 5.2 | 51.9 | 0.5 | 34 | 0.42 | CNC(=O)c1ccc(-c2cnc3cnc(C(=O)N(C)c4ccc(C#N)cc4)cn23)cc1 | 80
6 | > 10000 | > 10000 | – | – | – | – | – | – | – | – | – | – | – | – | – | CN(Cc1ccc(F)cc1)C(=O)c1cn2c(-c3ccc(C(F)(F)F)cc3)cnc2cn1 | –
7 | 62 | 56 | 0.52 | 190 | 260 | 0.95 | 170 (≈ 66.2 µg/mL) | 1.35 | 0.9 | 11.1 | 8.3 | 51.6 | 0.5 | 39.7 | 0.62 | CN(C(=O)c1cn2c(-c3ccc(C(N)=O)cc3)cnc2cn1)c1ccc(F)cc1 | 80
8 | > 10000 | > 10000 | – | – | – | – | – | – | – | – | – | – | – | – | – | CN1CCC(N(C)C(=O)c2cn3c(-c4ccc(C(F)(F)F)cc4)cnc3cn2)CC1 | –
9 | > 10000 | 9580 | – | – | – | – | – | – | – | – | – | – | – | – | – | CN(C(=O)c1cn2c(-c3ccc(C(F)(F)F)cc3)cnc2cn1)c1nc2ccccc2s1 | –
10 | 46 | 32 | – | 300 | 300 | – | – | – | – | – | – | – | – | – | – | CN(C(=O)c1cn2c(-c3ccc(-c4ccn[nH]4)cc3)cnc2cn1)c1ccc(C#N)cc1 | –
11 | > 10000 | 600 | – | – | > 10000 | – | – | – | – | – | – | – | – | – | – | CN(C(=O)c1ccc2ncc(-c3ccc(C#N)cc3)n2c1)c1ccccc1 | –
12 | 19 | 22 | – | 40 | 60 | – | < 5 | 3.39 | 0.99 | 0.12 | 0.02 | 0.24 | 1.7 | 16.2 | 2.12 | CN(C(=O)c1cn2c(-c3ccc(-c4nnc(N)s4)cc3)cnc2cn1)c1ccc(C#N)cc1 | –
13 | 5400 | 11 | – | – | > 10000 | – | – | – | – | – | – | – | – | – | – | CN(C(=O)c1ccc2ncc(-c3ccc(C(F)(F)F)cc3)n2c1)c1ccc(C#N)cc1 | –
14 | 3630 | 1630 | – | – | – | – | – | – | – | – | – | – | – | – | – | CN(C(=O)c1cn2c(-c3ccc(C(F)(F)F)cc3)cnc2cn1)c1ccc(C#N)nc1 | –
